Experimental data reported in patent US20180369186A1, “METHOD FOR MODULATING AUTOPHAGY AND APPLICATIONS THEREOF” (JAWAHARLAL NEHRU CENTRE FOR ADVANCED SCIENTIFIC RESEARCH, priority 2015, published 2018).

Tests used:
[1] = tested on: mcherry-Salmonella typhimurium SL1344; assay: Live cell microscopy of Salmonella replication in HeLa cells; format: cell-based; settings: GFP-LC3 transfected HeLa; vs untreated samples
Procedure: GFP-LC3 transfected HeLa cells is infected with mcherry-Salmonella typhimurium SL1344 for 15 minutes (MOI-400) and is treated with gentamycin for 10 minutes. The cells are then washed with 1× PBS and changed to either only media (a) and media containing Acacetin (b) and imaged by FV10i-olympus confocal live cell imaging microscope, using 60× water immersion lens, with confocality aperature set to 1.0. Images are taken at an interval of 15 minutes. (c) The intensity of the Red channel denoting the mcherry tagged S. typhimuriumis measured using image J—Stacks T function (intensity of red channel signifies the replication of the S. typhimurium over time). The replication of Salmonella in Acacetin treated samples is restricted as compared to that of untreated samples (FIG. 15)

[2] = tested on: HeLa cells (autophagosomes and autolysosomes); assay: Tandem RFP-GFP-LC3B (traffic light) assay in HeLa cells; format: cell-based, human; settings: ptf-LC3 transfected HeLa; 2 hours
Procedure: Transfection is done on a 60 mm dish with HeLa cells at 60-70% confluency. Cells were transfected with tandem RFP-GFP-MAP1LC3B construct (Addgene plasmid #21074) using 5 μl of Lipofectamine 2000 (11668-019, Invitrogen) and 2.5 μg of DNA (2:1 ratio) diluted in 100 μl of OPTI-MEM (31985-070, Invitrogen) separately. 72 hours after transfection cells are either left untreated or treatment with various concentrations of Bay11-7082 ZPCK is done for 2 hours. Starvation is induced by treating cells with Earle's balanced salt solution (EBBS). After treatment, cells are fixed in 4% paraformaldehyde and permeabilized using 0.25% Triton X-100, The coverslip is mounted with […] antifade reagent (H-1000, Vector laboratories). Imaging for HeLa cells is carried out using Delta vision microscope (Olympus 60×/1.4, Plan ApoN, excitation and emission filter Cy5, FITC and TRITC, polychroic Quad).
For tandem RFP-EGFP-LC3 assay, sub-confluent cells are seeded in 60 mm dishes, transfected with ptf LC3 construct and allowed to express for 24 h. Later, cells are trypsinized, reseeded (10^5 cells) and allowed to attach on cover slips in a 12 well plate.
For mammalian cell microscopy, after 2 h of treatment, coverslips are fixed using 4% paraformaldehyde (PFA) (Sigma) and permeabilized using Triton X-100 (0.2%, HiMedia). Coverslips are mounted using antifade, Vectashield (Vector laboratories). For antibody staining, coverslips are blocked in 5% BSA for 1 h, incubated in primary antibody overnight and subsequent probing with fluorescent conjugated antibody. Coverslips are mounted using antifade, Vectashield (Vector laboratories).
Images are acquired using DeltaVisionElitewidefield microscope (API, GE) with following filters: DAPI (390/18 and 435/48), FITC (490/20 and 529/38), TRITC (542/27 and 594/45) and Cy5 (632/22 and 676/34). Images are processed using DV SoftWoRX software. Autophagosome (yellow) and autolysosome (red) are counted using Cell Counter plug-in in ImageJ software (NIH) and graphically represented as fold difference versus untreated (FIG. 3E).
Sub-confluent HeLa and/or SH-SY5Y cells are seeded into 60 mm cell culture dishes, then transfected with ptf LC3 construct and/or siRNA and allowed to express for 48 h. Cells are trypsinized, seeded again on poly-D-lysine coated cover slips in a 12 or 24 well plates and allowed to attach. After appropriate treatments, the coverslips containing cells are processed for imaging. For immunofluorescent antibody staining, the cover slips are incubated in primary antibody at 4° C. for overnight followed by secondary antibody incubation at room temperature.
For imaging the mammalian cells, after appropriate treatments, coverslips containing cells are fixed using 4% paraformaldehyde (PFA) (Sigma) and then permeabilized using Triton X-100 (0.2%, HiMedia). On slide, coverslips are mounted using antifade, Vectashield mounting medium (Vector laboratories). For antibody staining, coverslips are blocked using 5% BSA for 1 h at room temperature, then incubated with primary antibody at 4° C., overnight and then subsequently probed with corresponding fluorescent dye conjugated secondary antibody.

[3] = tested on: Salmonella typhimurium SL1344; assay: Growth curve of Salmonella typhimurium SL1344; format: cell-based; settings: Luria Broth, 10 hours
Procedure: A single colony of Salmonella typhimurium WT strain SL1344 grown overnight at 37° C. is diluted in Luria Broth media to get an O.D of 0.2. The diluted culture is used for treatments with Acacetin and Acacetin with gentamycin (100 μg/ml). The growth curve of the culture is obtained by measuring the absorbance at 600 nm using varioskan Flash Multiplate Spectrophotometer at 300 rpm and O.D taken at every 30 minutes interval for 10 hours is plotted using GraphPad Prism.

[4] = tested on: mcherry Salmonella typhimurium; assay: Co-localization of GFP-LC3 / p62 with mcherry Salmonella in HeLa cells; format: cell-based, human
Procedure: HeLa cells are transfected with GFP-LC3 using lipofectamine 3000. After 24 hours, cells are infected with Salmonella typhimurium WT strain SL1344 with an MOI of 400 for 15 minutes followed by gentamycin treatment at the concentration of 100 μg/ml for 10 minutes to kill the extracellular bacteria.
The cells are treated with and without Acacetin and incubated for different time points (1, 2, 4 and 6 hours) at 37° C. Quantitation of LC3 co-localization with Salmonella typhimurium SL1344 is done using ImageJ-Cell counter option (FIG. 14), to check whether with compound (Acacetin) treatment more autophagy machinery is recruited towards the bacteria.

[5] = tested on: Salmonella typhimurium SL1344; assay: Burden assay: intracellular Salmonella CFU in U1752 and HeLa cells; format: cell-based
Procedure: U1752 cell line and HeLa cell line are infected with Salmonella typhimurium SL1344, and grown overnight in micro-aerophilic condition, at an MOI of 400 for one hour. The cells are treated with media containing Gentamycin at the concentration of 100 μg/ml for 2 hours to kill the extracellular bacteria. The cells are then treated with compounds and incubated for ?hours to 4 hours. At the end, the cells are lysed using lysis buffer (0.1% SDS, 1% Triton X-100, 1× PBS) and the intercellular Salmonella is plated and the CFU is counted. The CFU of Salmonella in the Acacetin treated cells is reduced by almost 2 fold compared to that of the untreated cells. Statistical analysis of the results is done using Graphpad prism—two tailed T test (FIG. 12)

Pot1-GFP (peroxisomes) = assay: Pot1-GFP pexophagy assay; format: cell-based, S. cerevisiae; settings: starvation medium; vs untreated cells
Procedure: Pot1-GFP positive strains are allowed to grow till the A600 reached 0.8-1 in YPD. Peroxisome biogenesis is induced by growing these cells in oleate medium (0.1% oleate, 0.5% Tween-40, 0.25% yeast extract, 0.5% peptone, and 5 mM phosphate buffer) for 12hours. Cells are harvested, washed twice to remove traces of oleate and transferred to starvation medium without nitrogen, at inoculum density A600 3, to induce pexophagy. Cells are collected at various time intervals after pexophagy induction and processed by TCA method.
Pot1-GFP positive strains are allowed to grow in yeast extract peptone dextrose (YPD) (2% dextrose, 2% peptone and 1% yeast extract) till the Absorbance at 600 nm reaches 0.6-0.8. Peroxisome biogenesis is induced by growing these cells in YPG medium (1% yeast extract, 2% peptone, 3% glycerol) for 12 hours.
Cells are harvested, washed twice to remove traces of oleate and transferred to starvation medium with and without Acacetin, at. inoculum density Absorbance at 600 nm 3/ml, to induce pexophagy. Cells are collected at various time intervals after pexophagy induction and processed by TCA precipitation.

SMILES: COc1ccc(-c2cc(=O)c3c(O)cc(O)cc3o2)cc1 [Acacetin, 5,7-dihydroxy-2-(4-methoxyphenyl)chromen-4-one]
- replication of Salmonella (red channel intensity) [1]: restricted
- number of autolysosomes (red dots) [2]: increase in the number of autolysosomes
- anti-microbial activity against Salmonella typhimurium SL1344 [3]: does not have any anti-microbial activity
- temporal recruitment of LC3 to mcherry Salmonella typhimurium [4]: increases temporal recruitment of LC3
- temporal recruitment of p62 to mcherry Salmonella typhimurium [4]: increased temporal recruitment of p62
- functionality in Atg5 KO HeLa cell line ([5]; Atg5 KO HeLa): non-functionality
- reduction of CFU of intracellular Salmonella vs untreated ([5]; U1752 and HeLa cell lines, MOI 400): ~2 fold
- accumulation of free GFP over time (pexophagy) (Pot1-GFP (peroxisomes)): enhanced accumulation of free GFP
